Assay results: patent US10548897B2, “KSR antagonists” (Icahn School of Medicine at Mount Sinai, priority 2015, dated 2020)

Legend:
A549 = experiment: Cell viability, combination with trametinib, A549; format: cell-based; conditions: A549 (Ras-mutant)
Protocol: (§1) High BLISS scores indicate statistically significant synergy between Compound 21 and trametinib specifically within K-Ras mutant cells. Numbers listed within synergy matrices, representing % growth inhibition relative to DMSO controls, are mean of two replicates. Insets highlight dose responses of trametinib in the absence or presence of 1 μM Compound 21.
(§2) The viability ratio represented the viability observed for treated (inhibitors) relative to controls (DMSO).

HEK293 cells = experiment: FBS-induced ERK activation in serum-starved HEK293 cells; format: cell-based; conditions: 2 h pre-treatment, 5% FBS induction, compared with KSR1 siRNA
Protocol: FIGS. 10A-10B show KSR1 knockdown and Compound 21 treatment similarly block FBS-induced ERK activation. In FIG. 10A, HEK293 cells were serum starved for 24 hours and simultaneously treated with two independent siRNAs against KSR1. siNTC was used as a scrambled control. After induction with 5% FBS, cells were harvested at […]. In FIG. 10B, HEK293 cells were similarly serum starved and pre-treated with Compound 21 for 2 h before induction. The cells were then induced with FBS as in FIG. 10A.

KSR2:B-RAF^F667E dimers = KSR2:B-RAF^F667E dimers (Homo sapiens, UniProt Q6VAB6); experiment: Biolayer inferometry of KSR2:B-RAF dimerization (Octet Red96); format: binding; conditions: compound at 25 μM
Protocol: B-RAF and B-RAF mutants (F667E+/−R509H) were immobilized on sensor-heads and KSR2:MEK1 or MEK1 assembly was monitored. Curves indicate dose ranges of KSR2:MEK1 or MEK1 from 625 nM to 10 μM. In all plots, association occurred from 0 to 660 seconds, and dissociation was monitored thereafter up to 1500 seconds. Compound 21 and trametinib were added in the presence of KSR2:MEK1 at a concentration of 25 μM each.
To directly investigate the impact of Compound 21 on KSR2:B-RAF dimerization, bio-layer inferometry (BLI) was utilized to monitor real-time association and dissociation of KSR2:MEK1 or free MEK1 to a sensor tethered with immobilized B-RAF.
To specifically monitor KSR2:B-RAF dimerization relative to other possible interactions, a mutation in B-RAF^F667E was identified that eliminates binding to free MEK but not KSR2-MEK1 complexes, as shown in FIGS. 7C-7D. […]
Interactions between purified B-RAF and the KSR2:MEK1 complex were measured using biolayer inferometry on the Octet Red96 system (Forte Bio). […] Association and dissociation was monitored over 660 and 840 seconds, respectively. Data sets were normalized and analysed using global fit binding models (Fortebio software). […]

RAF = experiment: Inhibitory activity against purified RAF; format: biochemical
HCT-116 = experiment: Cell viability, combination with trametinib, HCT-116; format: cell-based
Protocol: as §1
FIGS. 13A-13D show data validating that Compound 21 is synergistic with trametinib in Ras-mutant cells. […] FIGS. 13C-13D show log of the combination index (CI) graphs of Compound 21 in combination with trametinib in HCT-116 vs. SK-MEL-239 cells as compared to the fractional effect (Fa).
as §2

ERK = experiment: Inhibitory activity against purified ERK; format: biochemical
[1] = test system: ERK phosphorylation in HCT-116 cell line; experiment: ERK phosphorylation dose response to trametinib, HCT-116; format: cell-based; conditions: HCT-116 (Ras-mutant)
[2] = test system: KSR-stimulated MEK and ERK phosphorylation; experiment: Cell-based reconstitution system monitoring KSR-driven MAPK signaling
Source text: To assess the biological function of lead compounds as Ras-MAPK pathway antagonists, a simplified cell-based reconstitution system was developed to directly monitor KSR-driven MAPK signaling. […] Based on similarity in phenotype and direct-binding activity, Compound 21 was identified as a small molecule mimic of KSR alleles that suppress oncogenic Ras mutations.

[3] = test system: MAPK pathway readouts (pERK, pMEK, pRSK) in A375 and HCT-116; experiment: Western blot of MAPK pathway readouts, treatment with trametinib combinations; format: cell-based
[4] = target: KSR2:MEK1 phosphorylation by B-RAF (Homo sapiens (Human), UniProt Q6VAB6); experiment: RAF phosphorylation assay, KSR2:MEK1 substrate; format: biochemical; conditions: 10 μM compound, 100 μM ATP, pMEK Ser218/Ser222
Protocol: (§3) FIGS. 9A-9C show phosphorylation of MEK1, KSR2:MEK1, and KSR2^A690F:MEK1 by B-RAF over time in the presence of Compound 21. Relative pMEK was determined by quantification of band intensities from western blots using Image Lab Software 4.1.
(§4) In particular, a variant of B-RAF was identified that could be expressed in high yield from E. Coli and which also retained near wild-type levels of kinase activity towards MEK1. For in vitro kinase assays, indicated concentrations of B-RAF and 1 μM KSR2-MEK1 or 1 μM MEK1 proteins were pre-incubated with 10 μM of indicated compounds for 15 minutes in buffer containing 25 mM Tris pH 7.5, 150 mM NaCl, 10 mM MgCl2, and 2% DMSO. Kinase reactions were initiated by the addition of 100 μM ATP and halted at the indicated times by the addition of 6×SDS loading dye. Samples were examined by western blotting as described for the ATP-biotin experiments and by probing overnight with a MEK1/2 Ser218-Ser222 phospho-specific antibody (Cell signaling). Membranes were visualized using enhanced chemiluminescence on a Biodoc (Biorad) for quantification purposes.

[5] = test system: MEK1 phosphorylation by B-RAF; experiment: RAF phosphorylation assay, MEK1 alone (KSR absent); format: biochemical; conditions: 10 μM compound, free MEK1
Protocol: as §3, §4

MEK = experiment: Inhibitory activity against purified MEK; format: biochemical

Chain of KSR2:MEK1 phosphorylation by B-RAF (Q6VAB6 634-950): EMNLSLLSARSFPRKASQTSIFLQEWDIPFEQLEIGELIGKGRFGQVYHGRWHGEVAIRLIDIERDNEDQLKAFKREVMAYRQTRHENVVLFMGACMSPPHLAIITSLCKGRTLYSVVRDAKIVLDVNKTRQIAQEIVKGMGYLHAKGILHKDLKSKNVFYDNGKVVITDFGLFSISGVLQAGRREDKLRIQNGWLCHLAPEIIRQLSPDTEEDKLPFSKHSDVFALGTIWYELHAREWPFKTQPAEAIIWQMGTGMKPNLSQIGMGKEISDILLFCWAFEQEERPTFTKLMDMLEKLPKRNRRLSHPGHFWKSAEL
Chain of KSR2:MEK1 phosphorylation by B-RAF (P29678 whole entry partner): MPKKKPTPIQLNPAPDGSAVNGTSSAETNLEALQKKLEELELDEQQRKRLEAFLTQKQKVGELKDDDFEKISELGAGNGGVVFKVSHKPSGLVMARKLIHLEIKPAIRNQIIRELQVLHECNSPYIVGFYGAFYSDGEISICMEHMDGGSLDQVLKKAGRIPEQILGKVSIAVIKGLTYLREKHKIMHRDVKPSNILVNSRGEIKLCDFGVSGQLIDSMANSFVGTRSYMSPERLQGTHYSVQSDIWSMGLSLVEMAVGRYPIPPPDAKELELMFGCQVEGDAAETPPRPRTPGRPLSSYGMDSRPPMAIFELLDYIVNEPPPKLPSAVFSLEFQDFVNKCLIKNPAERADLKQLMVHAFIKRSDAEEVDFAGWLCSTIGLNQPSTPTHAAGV

COc1cc2ncnc(Nc3ccc(Oc4ccccc4)cc3C)c2cc1OC [Compound 21, 6,7-Dimethoxy-N-(2-methyl-4-phenoxyphenyl)quinazolin-4-amine 2,2,2-trifluoroacetate]
shift of cell viability dose response to trametinib (A549): shifted the cell viability dose response to trametinib | effect on FBS-induced ERK activation (HEK293 cells): mimic the effects of RNAi based knockdown of KSR1 | association of KSR2:MEK1 with immobilized B-RAF^F667E (KSR2:B-RAF^F667E dimers): did not associate | inhibitory activity against purified RAF (RAF): lacked detectable inhibitory activity | shift of cell viability dose response to trametinib (HCT-116; HCT-116 (Ras-mutant)): shifted the cell viability dose response to trametinib | combination index (CI) with trametinib (HCT-116; HCT-116, negative log CI over broad Fa range): strong synergy | inhibitory activity against purified ERK (ERK): lacked detectable inhibitory activity | enhancement in the IC90 of trametinib on ERK phosphorylation [1]: 2 fold | suppression of KSR-stimulated MEK and ERK phosphorylation ([2]; KSR expression-dependent MAPK signaling): suppressed | suppression of KSR-stimulated MAPK signaling with active site mutant KSR^A690F ([2]; KSR^A690F mutant): greatly diminished the activity | MAPK pathway inhibition (pERK, pMEK, pRSK), single agent ([3]; alone, compared with Compound 21 + trametinib co-treatment): did not display the same pathway inhibition | MAPK pathway inhibition (pERK, pMEK, pRSK) in combination with trametinib ([3]; combined with trametinib, A375 and HCT-116): reduction in MAPK pathway readouts | KSR-stimulated MEK phosphorylation by RAF [4]: significantly reduced | MEK phosphorylation by RAF, KSR absent [5]: essentially inactive | inhibitory activity against purified MEK (MEK): lacked detectable inhibitory activity
